# Data as given in patent US8088930B2, “Benzimidazole derivatives” (Hoffmann-La Roche Inc., priority 2008, dated 2012).
# Biological target: T1, FXR ligand binding domain (GST-FXR LBD fusion protein, human FXR aa 193-473) (Homo sapiens, UniProt Q96RI1)
# T1 construct: fused on or other part: Glutathione-S-transferase (GST) fused N-terminally to the FXR LBD, used to capture the protein on glutathione SPA beads
# T1 sequence (Q96RI1 211-486 limits assumed): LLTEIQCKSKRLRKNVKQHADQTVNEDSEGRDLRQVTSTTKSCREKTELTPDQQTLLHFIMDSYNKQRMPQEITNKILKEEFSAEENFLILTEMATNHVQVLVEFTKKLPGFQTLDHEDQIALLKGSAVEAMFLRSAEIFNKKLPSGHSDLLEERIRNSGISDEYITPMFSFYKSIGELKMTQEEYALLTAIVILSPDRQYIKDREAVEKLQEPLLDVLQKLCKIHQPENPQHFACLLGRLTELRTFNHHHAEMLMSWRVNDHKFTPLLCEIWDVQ
# Assay: Radioligand binding assay (scintillation proximity, radioligand displacement)
# Conditions: 40 nM GST-FXR LBD on SPA beads, test compound 6×10^−9 M to 2.5×10^−5 M, read-out: h-IC50 Binding
# Description: The following tests were carried out in order to determine the activity of the compounds of formula (I).
# To accomplish this, the portions of the sequences encoding the FXR LBD were amplified by polymerase chain reaction (PCR) from a full-length clone by PCR and then subcloned into the plasmid vectors. The final clone was verified by DNA sequence analysis.
# The induction, expression, and subsequent purification of GST-LBD fusion protein was performed in E. coli strain BL21(pLysS) cells by standard methods (Current Protocols in Molecular Biology, Wiley Press, ed. Ausubel et al.).
# Radioligand Binding Assay
# Binding of test substances to the FXR ligand binding domain was assessed in a radioligand displacement assay. The assay was performed in a buffer consisting of 50 mM Hepes, pH 7.4, 10 mM NaCl, 5 mM MgCl2, 0.01% CHAPS. For each reaction well in a 96-well plate, 40 nM of GST-FXR LBD fusion protein was bound to 10 μg glutathione yttrium silicate SPA beads (Pharmacia Amersham) in a final volume of 50 μl by shaking. A radioligand (e.g., 20 nM of 2,N-dicyclohexyl-2-[2-(2,4 dimethoxy-phenyl)-benzoimidazol-1-yl]-acetamide) and test compounds were added, and scintillation proximity counting was performed. All binding assays were performed in 96-well plates and the amount of bound ligand was measured on a Packard TopCount using OptiPlates (Packard).
row,SMILES,IC50 [nM]
1,"CC(C)(Oc1cccc(OCC(C2CCCCC2)n2c(-c3ccc(Cl)cc3)nc3cc(F)c(F)cc32)c1)C(=O)O (stereo not shown) [Example 95, 2-(3-{2-[2-(4-Chloro-phenyl)-5,6-difluoro-benzoimidazol-1-yl]-2-cyclohexyl-ethoxy}-phenoxy)-2-methyl-propionic acid]",600
2,"O=C(O)c1ccc(COCC(C2CCCCC2)n2c(-c3ccc(Cl)cc3)nc3cc(F)c(F)cc32)cc1 (stereo not shown) [Example 58, 4-{2-[2-(4-Chloro-phenyl)-5,6-difluoro-benzoimidazol-1-yl]-2-cyclohexyl-ethoxymethyl}-benzoic acid]",100
3,"O=C(O)c1c(F)cc(OCC(C2CCCCC2)n2c(-c3ccc(Cl)cc3)nc3cc(F)c(F)cc32)cc1F (stereo not shown) [Example 42, 4-{2-[2-(4-Chloro-phenyl)-5,6-difluoro-benzoimidazol-1-yl]-2-cyclohexyl-ethoxy}-2,6-difluoro-benzoic acid]",200
4,"Fc1cc2nc(-c3ccc(Cl)cc3)n(C(COc3ccc(-c4nnn[nH]4)cn3)C3CCCCC3)c2cc1F (single isomer, unassigned; (-)) [Example 63, (−)-2-(4-Chloro-phenyl)-1-{1-cyclohexyl-2-[5-(1H-tetrazol-5-yl)-pyridin-2-yloxy]-ethyl}-5,6-difluoro-1H-benzoimidazole]",90
5,"Cc1cc(-c2nnn[nH]2)cc(C)c1OCC(C1CCCCC1)n1c(-c2ccc(Cl)cc2)nc2cc(F)c(F)cc21 (single isomer, unassigned; (-)) [Example 71, (−)-2-(4-Chloro-phenyl)-1-{1-cyclohexyl-2-[2,6-dimethyl-4-(1H-tetrazol-5-yl)-phenoxy]-ethyl}-5,6-difluoro-1H-benzoimidazole]",60
6,"O=C(O)c1cc(F)c(OCC(C2CCCCC2)n2c(-c3ccc(Cl)cc3)nc3ccccc32)c(Cl)c1 (single isomer, unassigned; (+)) [Example 110, (+)-3-Chloro-4-{2-[2-(4-chloro-phenyl)-benzoimidazol-1-yl]-2-cyclohexyl-ethoxy}-5-fluoro-benzoic acid]",60
7,"O=C(O)c1ccc(COCC(C2CCCCC2)n2c(-c3ccc(Cl)cc3)nc3cc(F)c(F)cc32)c(F)c1 (single isomer, unassigned; (-)) [Example 65, (−)-4-{2-[2-(4-Chloro-phenyl)-5,6-difluoro-benzoimidazol-1-yl]-2-cyclohexyl-ethoxymethyl}-3-fluoro-benzoic]",200
8,"COc1cc(C(=O)O)cc(OCC(C2CCCCC2)n2c(-c3ccc(Cl)cc3)nc3cc(F)c(F)cc32)n1 (stereo not shown) [Example 31, 2-{2-[2-(4-Chloro-phenyl)-5,6-difluoro-benzoimidazol-1-yl]-2-cyclohexyl-ethoxy}-6-methoxy-isonicotinic acid]",600
9,"O=C(O)c1c(F)cc(OCC(C2CCCCC2)n2c(-c3ccc(Cl)cc3)nc3cc(F)c(F)cc32)cc1F (single isomer, unassigned; (+)) [Example 43, (+)-4-{2-[2-(4-Chloro-phenyl)-5,6-difluoro-benzoimidazol-1-yl]-2-cyclohexyl-ethoxy}-2,6-difluoro-benzoic acid]",700
10,"Fc1cc2nc(-c3ccc(Cl)cc3)n(C(COCC3CCCCC3)C3CCCCC3)c2cc1F (single isomer, unassigned; (-)) [Example 2, (−)-2-(4-Chloro-phenyl)-1-(1-cyclohexyl-2-cyclohexylmethoxy-ethyl)-5,6-difluoro-1H-benzoimidazole]",60
11,"O=C(O)c1cnc(OCC(C2CCCCC2)n2c(-c3ccc(Cl)cc3)nc3cc(F)c(F)cc32)c(Br)c1 (stereo not shown) [Example 114, 5-Bromo-6-{2-[2-(4-chloro-phenyl)-5,6-difluoro-benzoimidazol-1-yl]-2-cyclohexyl-ethoxy}-nicotinic acid]",60
12,"Fc1cc2nc(-c3ccc(Cl)cc3)n([C@H](COCC3CCCCC3)C3CCCCC3)c2cc1F [Example 3, (+)-2-(4-Chloro-phenyl)-1-((S)-1-cyclohexyl-2-cyclohexylmethoxy-ethyl)-5,6-difluoro-1H-benzoimidazole]",32100

# Further lines, results first:
row,IC50 [nM],SMILES
1,1,"Fc1cc2nc(-c3ccc(Cl)cc3)n(C(COc3c(F)cc(-c4nnn[nH]4)cc3F)C3CCCCC3)c2cc1F (stereo not shown) [Example 127, 2-(4-Chloro-phenyl)-1-{1-cyclohexyl-2-[2,6-difluoro-4-(1H-tetrazol-5-yl)-phenoxy]-ethyl}-5,6-difluoro-1H-benzoimidazole]"
2,3,"O=C(O)c1cc(F)c(OCC(C2CCCCC2)n2c(-c3ccc(Cl)cc3)nc3cc(F)c(F)cc32)c(F)c1 (single isomer, unassigned; (-)) [Example 86, (−)-4-{2-[2-(4-Chloro-phenyl)-5,6-difluoro-benzoimidazol-1-yl]-2-cyclohexyl-ethoxy}-3,5-difluoro-benzoic acid]"
3,20,"Cc1cc(C(=O)O)ccc1OCC(C1CCCCC1)n1c(-c2ccc(Cl)cc2)nc2cc(F)c(F)cc21 (stereo not shown) [Example 11, 4-{2-[2-(4-Chloro-phenyl)-5,6-difluoro-benzoimidazol-1-yl]-2-cyclohexyl-ethoxy}-3-methyl-benzoic acid]"
4,60,"O=C(O)c1ccc(COCC(C2CCCCC2)n2c(-c3ccc(Cl)cc3)nc3cc(F)c(F)cc32)c(F)c1 (stereo not shown) [Example 59, 4-{2-[2-(4-Chloro-phenyl)-5,6-difluoro-benzoimidazol-1-yl]-2-cyclohexyl-ethoxymethyl}-3-fluoro-benzoic]"
5,10,"Cc1cc(C(=O)O)cc(C)c1OCC(C1CCCCC1)n1c(-c2ccc(Cl)cc2)nc2ccccc21 (single isomer, unassigned; (+)) [Example 107, (+)-4-{2-[2-(4-Chloro-phenyl)-benzoimidazol-1-yl]-2-cyclohexyl-ethoxy}-3,5-dimethyl-benzoic acid]"
6,10,"Fc1cc2nc(-c3ccc(Cl)cc3)n(C(COc3ccc(-c4nnn[nH]4)cc3F)C3CCCCC3)c2cc1F (single isomer, unassigned; (-)) [Example 81, (−)-2-(4-Chloro-phenyl)-1-{1-cyclohexyl-2-[2-fluoro-4-(1H-tetrazol-5-yl)-phenoxy]-ethyl}-5,6-difluoro-1H-benzoimidazole]"
7,50,"Cc1cc(C(=O)O)ccc1OCC(C1CCCCC1)n1c(-c2ccc(Cl)cc2)nc2cc(F)c(F)cc21 (single isomer, unassigned; (-)) [Example 12, (−)-4-{2-[2-(4-Chloro-phenyl)-5,6-difluoro-benzoimidazol-1-yl]-2-cyclohexyl-ethoxy}-3-methyl-benzoic acid]"
8,3,"CC(C)(Oc1ccc(-c2nnn[nH]2)cc1)C(C1CCCCC1)n1c(-c2ccc(Cl)cc2)nc2cc(F)c(F)cc21 (single isomer, unassigned; (-)) [Example 88, (−)-2-(4-Chloro-phenyl)-1-{1-cyclohexyl-2-methyl-2-[4-(1H-tetrazol-5-yl)-phenoxy]-propyl}-5,6-difluoro-1H-benzoimidazole]"
9,30,"O=C(O)c1cnc(OCC(C2CCCCC2)n2c(-c3ccc(Cl)cc3)nc3cc(F)c(F)cc32)c(Cl)c1 (stereo not shown) [Example 22, 5-Chloro-6-{2-[2-(4-chloro-phenyl)-5,6-difluoro-benzoimidazol-1-yl]-2-cyclohexyl-ethoxy}-nicotinic acid]"
10,3,"O=C(O)c1ccc(CCC(C2CCCCC2)n2c(-c3ccccc3)nc3cc(F)c(F)cc32)cc1 (single isomer, unassigned; (-)) [Example 143, (−)-4-[3-Cyclohexyl-3-(5,6-difluoro-2-phenyl-benzoimidazol-1-yl)-propyl]-benzoic acid]"
11,0.2,"COc1ccc(-c2nc3cc(F)c(F)cc3n2C(COc2c(C)cc(C(=O)O)cc2C)C2CCCCC2)c(OC)n1 (single isomer, unassigned; (+)) [Example 83, (+)-4-{2-Cyclohexyl-2-[2-(2,6-dimethoxy-pyridin-3-yl)-5,6-difluoro-benzoimidazol-1-yl]-ethoxy}-3,5-dimethyl-benzoic acid]"
12,10,"CC(C)(Oc1ccc(C(=O)O)cc1)C(C1CCCCC1)n1c(-c2ccc(Cl)cc2)nc2cc(F)c(F)cc21 (single isomer, unassigned; (-)) [Example 89, (−)-4-{2-[2-(4-Chloro-phenyl)-5,6-difluoro-benzoimidazol-1-yl]-2-cyclohexyl-1,1-dimethyl-ethoxy}-benzoic acid]"
13,30,"O=C(O)c1cc(F)c(OCC(C2CCCCC2)n2c(-c3ccc(Cl)cc3)nc3cc(F)c(F)cc32)c(Cl)c1 (single isomer, unassigned; (+)) [Example 78, (+)-3-Chloro-4-{2-[2-(4-chloro-phenyl)-5,6-difluoro-benzoimidazol-1-yl]-2-cyclohexyl-ethoxy}-5-fluoro-benzoic acid]"
